Format in all cases: functional
For assay [1], the system named is Bacillus subtilis. Kind of assay: Antibacterial activity against Bacillus subtilis MTCC 121 assessed as reduction in bacterial growth incubated for 24 hrs by agar well diffusion method. Conditions: MTCC 121, 24 h. (Agar diffusion results depend on both activity and mobility in agar.)
Assay [2] deals with Staphylococcus aureus. Kind of assay: Antibacterial activity against Staphylococcus aureus MLS-16 MTCC 2940 assessed as reduction in bacterial growth incubated for 24 hrs by agar well diffusion method. Conditions: MLS-16 MTCC 2940, 24 h.
The subject of assay [3] is Micrococcus luteus. Kind of assay: Antibacterial activity against Micrococcus luteus MTCC 2470 assessed as reduction in bacterial growth incubated for 24 hrs by agar well diffusion method. The settings on record: MTCC 2470, 24 h.
Assay [4] deals with Staphylococcus aureus. The assay is described as follows: Antibacterial activity against Staphylococcus aureus MTCC 96 assessed as reduction in bacterial growth incubated for 24 hrs by agar well diffusion method. The settings on record: MTCC 96, 24 h.
Assay [5] relates to Escherichia coli. Kind of assay: Antibacterial activity against Escherichia coli MTCC 739 assessed as reduction in bacterial growth incubated for 24 hrs by agar well diffusion method. Conditions: MTCC 739, 24 h.
In assay [6] the test system is Pseudomonas aeruginosa. The assay is described as follows: Antibacterial activity against Pseudomonas aeruginosa MTCC 2453 assessed as reduction in bacterial growth incubated for 24 hrs by agar well diffusion method. Conditions: MTCC 2453, 24 h.
Assay [7] deals with Raoultella planticola. Kind of assay: Antibacterial activity against Klebsiella planticola MTCC 530 assessed as reduction in bacterial growth incubated for 24 hrs by agar well diffusion method. Conditions: MTCC 530, 24 h.
Assay [8] relates to Candida albicans. The assay is described as follows: Antifungal activity against Candida albicans MTCC 3017 assessed as reduction in fungal growth incubated for 24 hrs by agar well diffusion method. Conditions: MTCC 3017, 24 h.
Assay [9] deals with Bacillus subtilis. Kind of assay: Bactericidal activity against Bacillus subtilis MTCC 121 assessed as reduction in bacterial survival incubated for 24 hrs followed by transfer of microbial suspension to agar plates and measured at 24 hrs post transfer by agar well diffusion method. Conditions: MTCC 121, 24 h.
Assay [10] relates to Staphylococcus aureus. The assay is described as follows: Bactericidal activity against Staphylococcus aureus MLS-16 MTCC 2940 assessed as reduction in bacterial survival incubated for 24 hrs followed by transfer of microbial suspension to agar plates and measured at 24 hrs post transfer by agar well diffusion method. The settings on record: MLS-16 MTCC 2940, 24 h.
For assay [11], the system named is Micrococcus luteus. The assay is described as follows: Bactericidal activity against Micrococcus luteus MTCC 2470 assessed as reduction in bacterial survival incubated for 24 hrs followed by transfer of microbial suspension to agar plates and measured at 24 hrs post transfer by agar well diffusion method. The settings on record: MTCC 2470, 24 h.
The subject of assay [12] is Staphylococcus aureus. Kind of assay: Bactericidal activity against Staphylococcus aureus MTCC 96 assessed as reduction in bacterial survival incubated for 24 hrs followed by transfer of microbial suspension to agar plates and measured at 24 hrs post transfer by agar well diffusion method. The settings on record: MTCC 96, 24 h.
For assay [13], the system named is Escherichia coli. The assay is described as follows: Bactericidal activity against Escherichia coli MTCC 739 assessed as reduction in bacterial survival incubated for 24 hrs followed by transfer of microbial suspension to agar plates and measured at 24 hrs post transfer by agar well diffusion method. The settings on record: MTCC 739, 24 h.
Assay [14] relates to Pseudomonas aeruginosa. Kind of assay: Bactericidal activity against Pseudomonas aeruginosa MTCC 2453 assessed as reduction in bacterial survival incubated for 24 hrs followed by transfer of microbial suspension to agar plates and measured at 24 hrs post transfer by agar well diffusion method. Conditions: MTCC 2453, 24 h.
Assay [15] has as its system Raoultella planticola. The assay is described as follows: Bactericidal activity against Klebsiella planticola MTCC 530 assessed as reduction in bacterial survival incubated for 24 hrs followed by transfer of microbial suspension to agar plates and measured at 24 hrs post transfer by agar well diffusion method. The settings on record: MTCC 530, 24 h.
In assay [16] the test system is Candida albicans. The assay is described as follows: Fungicidal activity against Candida albicans MTCC 3017 assessed as reduction in fungal survival incubated for 24 hrs followed by transfer of microbial suspension to agar plates and measured at 24 hrs post transfer by agar well diffusion method. The settings on record: MTCC 3017, 24 h.

≈ marks a conversion by molar mass, not a printed value.

Consider `COc1ccc(-c2nc3sccn3c2C(=O)c2cn(-c3cc(OC)c(OC)c(OC)c3)nn2)cc1`, for which the MIC (usually the lowest concentration found to suppress growth) in the assay with Bacillus subtilis [1] is 15.6 µg/mL (≈ 31.7 µM); in the assay on Staphylococcus aureus [2], 7.8 µg/mL (≈ 15.9 µM); in the assay with Micrococcus luteus [3] it was 15.6 µg/mL (≈ 31.7 µM); with Staphylococcus aureus [4], 15.6 µg/mL (≈ 31.7 µM); in the assay on Escherichia coli [5], > 125 µg/mL; with Pseudomonas aeruginosa [6], > 125 µg/mL. The MIC in the assay on Raoultella planticola [7] was > 125 µg/mL; with Candida albicans [8] it was 7.8 µg/mL (≈ 15.9 µM). The MBC – broadly, the smallest concentration meeting the test's criterion for killing – was 31.2 µg/mL (≈ 63.5 µM) in the assay with Bacillus subtilis [9]; 15.6 µg/mL (≈ 31.7 µM) in the assay on Staphylococcus aureus [10]; 31.2 µg/mL (≈ 63.5 µM) in the assay on Micrococcus luteus [11]; 31.2 µg/mL (≈ 63.5 µM) with Staphylococcus aureus [12]; > 125 µg/mL in the assay with Escherichia coli [13]; > 125 µg/mL in the assay with Pseudomonas aeruginosa [14]. Moreover, in the assay with Raoultella planticola [15], the MBC was > 125 µg/mL. The MFC (commonly the lowest tested concentration that kills the fungus rather than only halting it) in the assay on Candida albicans [16] stood at 15.6 µg/mL (≈ 31.7 µM).

Turning to `O=C(c1cn(-c2ccc(C(F)(F)F)cc2)nn1)c1c(-c2ccc(Cl)cc2)nc2sccn12`, the MIC with Bacillus subtilis [1] was 15.6 µg/mL (≈ 32.9 µM); with Staphylococcus aureus [2], > 125 µg/mL; with Micrococcus luteus [3] it was > 125 µg/mL; in the assay on Staphylococcus aureus [4], > 125 µg/mL; with Escherichia coli [5], > 125 µg/mL; with Pseudomonas aeruginosa [6], > 125 µg/mL. Also, the values for the MIC in the assay with Raoultella planticola [7] and in the assay on Candida albicans [8] were > 125 µg/mL and 15.6 µg/mL (≈ 32.9 µM), respectively. For the same compound, the MBC is 31.2 µg/mL (≈ 65.8 µM) with Bacillus subtilis [9]; > 125 µg/mL in the assay with Staphylococcus aureus [10]; > 125 µg/mL in the assay with Micrococcus luteus [11]; > 125 µg/mL with Staphylococcus aureus [12]; > 125 µg/mL with Escherichia coli [13]; > 125 µg/mL in the assay with Pseudomonas aeruginosa [14]. For the same compound, the MBC with Raoultella planticola [15] is > 125 µg/mL. Besides, the MFC in the assay with Candida albicans [16] came out at 15.6 µg/mL (≈ 32.9 µM).

For the compound `COc1ccc(-c2nc3sccn3c2C(=O)c2cn(-c3ccc(C(F)(F)F)cc3)nn2)cc1`, the MIC with Bacillus subtilis [1] was 15.6 µg/mL (≈ 33.2 µM); with Staphylococcus aureus [2], 15.6 µg/mL (≈ 33.2 µM); with Micrococcus luteus [3], 7.8 µg/mL (≈ 16.6 µM); in the assay with Staphylococcus aureus [4], 15.6 µg/mL (≈ 33.2 µM); with Escherichia coli [5] it was > 125 µg/mL; in the assay on Pseudomonas aeruginosa [6] it was > 125 µg/mL. Moreover, the results for the MIC in the assay on Raoultella planticola [7] and in the assay on Candida albicans [8] were > 125 µg/mL and 7.8 µg/mL (≈ 16.6 µM), respectively. Further, the MBC was 31.2 µg/mL (≈ 66.5 µM) in the assay with Bacillus subtilis [9]; 31.2 µg/mL (≈ 66.5 µM) in the assay on Staphylococcus aureus [10]; 15.6 µg/mL (≈ 33.2 µM) with Micrococcus luteus [11]; 31.2 µg/mL (≈ 66.5 µM) in the assay on Staphylococcus aureus [12]; > 125 µg/mL with Escherichia coli [13]; > 125 µg/mL in the assay on Pseudomonas aeruginosa [14]. In the assay with Raoultella planticola [15], the MBC is > 125 µg/mL. Moreover, in the assay with Candida albicans [16], the MFC is 15.6 µg/mL (≈ 33.2 µM).

For `COc1cc(-n2cc(C(=O)c3c(-c4ccc(Cl)cc4)nc4sccn34)nn2)cc(OC)c1OC`, the MIC in the assay on Bacillus subtilis [1] was 3.9 µg/mL (≈ 7.86 µM); in the assay on Staphylococcus aureus [2] it was 7.8 µg/mL (≈ 15.7 µM); with Micrococcus luteus [3], 15.6 µg/mL (≈ 31.5 µM); in the assay with Staphylococcus aureus [4] it was 7.8 µg/mL (≈ 15.7 µM); in the assay on Escherichia coli [5] it was > 125 µg/mL; with Pseudomonas aeruginosa [6], > 125 µg/mL. Also, the figures for the MIC in the assay on Raoultella planticola [7] and in the assay on Candida albicans [8] were > 125 µg/mL and 15.6 µg/mL (≈ 31.5 µM), respectively. Also, the minimum bactericidal concentration (MBC) in the assay with Bacillus subtilis [9] is 7.8 µg/mL (≈ 15.7 µM); with Staphylococcus aureus [10] it was 15.6 µg/mL (≈ 31.5 µM); with Micrococcus luteus [11], 31.2 µg/mL (≈ 62.9 µM); in the assay on Staphylococcus aureus [12] it was 15.6 µg/mL (≈ 31.5 µM); in the assay with Escherichia coli [13] it was > 125 µg/mL; in the assay on Pseudomonas aeruginosa [14], > 125 µg/mL. Moreover, the MBC in the assay with Raoultella planticola [15] is > 125 µg/mL. In the assay on Candida albicans [16], the MFC was 31.2 µg/mL (≈ 62.9 µM).

In the case of `O=C(c1cn(-c2ccc(C(F)(F)F)cc2)nn1)c1c(-c2ccccc2)nc2sccn12`, the MIC with Bacillus subtilis [1] was 3.9 µg/mL (≈ 8.88 µM); in the assay on Staphylococcus aureus [2] it was 7.8 µg/mL (≈ 17.8 µM); with Micrococcus luteus [3], 3.9 µg/mL (≈ 8.88 µM); in the assay with Staphylococcus aureus [4], 3.9 µg/mL (≈ 8.88 µM); with Escherichia coli [5] it was > 125 µg/mL; in the assay on Pseudomonas aeruginosa [6], > 125 µg/mL. For the same compound, the MIC was > 125 µg/mL in the assay with Raoultella planticola [7] and 15.6 µg/mL (≈ 35.5 µM) in the assay on Candida albicans [8]. Moreover, the MBC in the assay with Bacillus subtilis [9] was 7.8 µg/mL (≈ 17.8 µM); with Staphylococcus aureus [10], 15.6 µg/mL (≈ 35.5 µM); in the assay on Micrococcus luteus [11], 7.8 µg/mL (≈ 17.8 µM); in the assay with Staphylococcus aureus [12], 7.8 µg/mL (≈ 17.8 µM); in the assay with Escherichia coli [13], > 125 µg/mL; in the assay on Pseudomonas aeruginosa [14], > 125 µg/mL. The MBC in the assay with Raoultella planticola [15] was > 125 µg/mL. For the same compound, the MFC with Candida albicans [16] was 31.2 µg/mL (≈ 71 µM).

For the compound `COc1ccc(-c2nc3sccn3c2C(=O)c2cn(-c3ccc(Br)cc3)nn2)cc1`, the MIC with Bacillus subtilis [1] was 7.8 µg/mL (≈ 16.2 µM); in the assay on Staphylococcus aureus [2] it was 7.8 µg/mL (≈ 16.2 µM); with Micrococcus luteus [3] it was 7.8 µg/mL (≈ 16.2 µM); with Staphylococcus aureus [4], 3.9 µg/mL (≈ 8.12 µM); in the assay with Escherichia coli [5] it was > 125 µg/mL; in the assay on Pseudomonas aeruginosa [6], > 125 µg/mL. The MIC in the assay with Raoultella planticola [7] is 15.6 µg/mL (≈ 32.5 µM); with Candida albicans [8], 7.8 µg/mL (≈ 16.2 µM). Besides, the MBC in the assay with Bacillus subtilis [9] was 15.6 µg/mL (≈ 32.5 µM); in the assay on Staphylococcus aureus [10] it was 15.6 µg/mL (≈ 32.5 µM); in the assay with Micrococcus luteus [11], 15.6 µg/mL (≈ 32.5 µM); in the assay with Staphylococcus aureus [12] it was 7.8 µg/mL (≈ 16.2 µM); in the assay on Escherichia coli [13] it was > 125 µg/mL; in the assay on Pseudomonas aeruginosa [14], > 125 µg/mL. Moreover, in the assay with Raoultella planticola [15], the MBC was found to be 31.2 µg/mL (≈ 65 µM). Moreover, the MFC in the assay on Candida albicans [16] was determined as 15.6 µg/mL (≈ 32.5 µM).
